Tested on: SEM cells
Test: cell viability relative to DMSO control; higher = less cytotoxic
Settings: 48 h
How it was run: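 Viability was expressed as a per-plate percentage of DMSO wells, with cell-free wells as background. Leukemia cells (NOMO1 or SEM at 500 cells/well, P12-Ichikawa at 1000 cells/well) were adapted for at least four passages in each medium and seeded in 1536-well plates (5 μl). Library compounds in DMSO were pin-dosed over an 11-point threefold series from 47 μM to 0.79 nM, and CellTiter-Glo One luminescence was read after 48 h at 37°C.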

[1] = HPLM + 10% dialyzed FBS, 0.000781 µM
[2] = HPLM + 10% dialyzed FBS, 0.00234 µM
[3] = HPLM + 10% dialyzed FBS, 0.00702 µM
[4] = HPLM + 10% dialyzed FBS, 0.0211 µM
[5] = HPLM + 10% dialyzed FBS, 0.0632 µM
[6] = HPLM + 10% dialyzed FBS, 0.19 µM
[7] = HPLM + 10% dialyzed FBS, 0.569 µM
[8] = HPLM + 10% dialyzed FBS, 1.71 µM
[9] = HPLM + 10% dialyzed FBS, 5.12 µM
[10] = HPLM + 10% dialyzed FBS, 15.4 µM
[11] = HPLM + 10% dialyzed FBS, 46.1 µM
[12] = RPMI 5 mM glucose + 10% FBS, 0.000781 µM
[13] = RPMI 5 mM glucose + 10% FBS, 0.00234 µM
[14] = RPMI 5 mM glucose + 10% FBS, 0.00702 µM
[15] = RPMI 5 mM glucose + 10% FBS, 0.0211 µM
[16] = RPMI 5 mM glucose + 10% FBS, 0.0632 µM
[17] = RPMI 5 mM glucose + 10% FBS, 0.19 µM
[18] = RPMI 5 mM glucose + 10% FBS, 0.569 µM
[19] = RPMI 5 mM glucose + 10% FBS, 1.71 µM
[20] = RPMI 5 mM glucose + 10% FBS, 5.12 µM
[21] = RPMI 5 mM glucose + 10% FBS, 15.4 µM
[22] = RPMI 5 mM glucose + 10% FBS, 46.1 µM
[23] = RPMI 5 mM glucose + 10% dialyzed FBS, 0.000781 µM
[24] = RPMI 5 mM glucose + 10% dialyzed FBS, 0.00234 µM
[25] = RPMI 5 mM glucose + 10% dialyzed FBS, 0.00702 µM
[26] = RPMI 5 mM glucose + 10% dialyzed FBS, 0.0211 µM
[27] = RPMI 5 mM glucose + 10% dialyzed FBS, 0.0632 µM
[28] = RPMI 5 mM glucose + 10% dialyzed FBS, 0.19 µM
[29] = RPMI 5 mM glucose + 10% dialyzed FBS, 0.569 µM
[30] = RPMI 5 mM glucose + 10% dialyzed FBS, 1.71 µM
[31] = RPMI 5 mM glucose + 10% dialyzed FBS, 5.12 µM
[32] = RPMI 5 mM glucose + 10% dialyzed FBS, 15.4 µM
[33] = RPMI 5 mM glucose + 10% dialyzed FBS, 46.1 µM

## CCC(=C/[C@H](C)C/C=C/C(C)=C/[C@@H](C)C(=O)[C@@H](C)[C@H](O)[C@@H](C)C/C(C)=C/C(=O)O)/C=C/[C@@H]1OC(=O)C=C[C@@H]1C
[1]
  cell viability: 59.9%
[2]
  cell viability: 88.8%
[3]
  cell viability: 77.7%
[4]
  cell viability: 79.9%
[5]
  cell viability: 89.2%
[6]
  cell viability: 75.7%
[7]
  cell viability: 62.4%
[8]
  cell viability: 20.6%
[9]
  cell viability: 5.63%
[10]
  cell viability: 5.09%
[11]
  cell viability: 7.74%
[12]
  cell viability: 83%
[13]
  cell viability: 96.4%
[14]
  cell viability: 93.2%
[15]
  cell viability: 95.3%
[16]
  cell viability: 106%
[17]
  cell viability: 70.4%
[18]
  cell viability: 45.5%
[19]
  cell viability: 13%
[20]
  cell viability: 6.23%
[21]
  cell viability: 5.5%
[22]
  cell viability: 10.9%
[23]
  cell viability: 84%
[24]
  cell viability: 86%
[25]
  cell viability: 95.4%
[26]
  cell viability: 91.1%
[27]
  cell viability: 82.9%
[28]
  cell viability: 77.7%
[29]
  cell viability: 52%
[30]
  cell viability: 18.8%
[31]
  cell viability: 7.36%
[32]
  cell viability: 6.69%
[33]
  cell viability: 8.55%

## Nc1nc(N)c2nc(-c3cccc(O)c3)c(-c3cccc(O)c3)nc2n1
[1]
  cell viability: 110%
[2]
  cell viability: 120%
[3]
  cell viability: 120%
[4]
  cell viability: 135%
[5]
  cell viability: 111%
[6]
  cell viability: 125%
[7]
  cell viability: 104%
[8]
  cell viability: 106%
[9]
  cell viability: 94.5%
[10]
  cell viability: 35%
[11]
  cell viability: 8.06%
[12]
  cell viability: 124%
[13]
  cell viability: 125%
[14]
  cell viability: 125%
[15]
  cell viability: 129%
[16]
  cell viability: 103%
[17]
  cell viability: 118%
[18]
  cell viability: 120%
[19]
  cell viability: 110%
[20]
  cell viability: 108%
[21]
  cell viability: 73.8%
[22]
  cell viability: 13.8%
[23]
  cell viability: 119%
[24]
  cell viability: 99.4%
[25]
  cell viability: 129%
[26]
  cell viability: 106%
[27]
  cell viability: 105%
[28]
  cell viability: 114%
[29]
  cell viability: 98.8%
[30]
  cell viability: 96.5%
[31]
  cell viability: 97.2%
[32]
  cell viability: 61%
[33]
  cell viability: 18.2%

## COC1=CC=CC(=C1N)\C2=C\C(=O)C3=C(O2)C=CC=C3
[1]
  cell viability: 99.8%
[2]
  cell viability: 123%
[3]
  cell viability: 124%
[4]
  cell viability: 130%
[5]
  cell viability: 129%
[6]
  cell viability: 146%
[7]
  cell viability: 140%
[8]
  cell viability: 145%
[9]
  cell viability: 148%
[10]
  cell viability: 145%
[11]
  cell viability: 156%
[12]
  cell viability: 119%
[13]
  cell viability: 112%
[14]
  cell viability: 120%
[15]
  cell viability: 121%
[16]
  cell viability: 136%
[17]
  cell viability: 136%
[18]
  cell viability: 161%
[19]
  cell viability: 143%
[20]
  cell viability: 141%
[21]
  cell viability: 177%
[22]
  cell viability: 144%
[23]
  cell viability: 106%
[24]
  cell viability: 111%
[25]
  cell viability: 134%
[26]
  cell viability: 134%
[27]
  cell viability: 128%
[28]
  cell viability: 136%
[29]
  cell viability: 145%
[30]
  cell viability: 164%
[31]
  cell viability: 149%
[32]
  cell viability: 160%
[33]
  cell viability: 155%

## CC(C)C[C@H](NC(=O)CNC(=O)c1cc(Cl)ccc1Cl)B(O)O
[1]
  cell viability: 86.3%
[2]
  cell viability: 77.4%
[3]
  cell viability: 109%
[4]
  cell viability: 19.6%
[5]
  cell viability: 107%
[6]
  cell viability: 12.5%
[7]
  cell viability: 7.52%
[8]
  cell viability: 6.82%
[9]
  cell viability: 6.78%
[10]
  cell viability: 4.58%
[11]
  cell viability: 3.36%
[12]
  cell viability: 88.4%
[13]
  cell viability: 85.9%
[14]
  cell viability: 103%
[15]
  cell viability: 15.2%
[16]
  cell viability: 113%
[17]
  cell viability: 11.4%
[18]
  cell viability: 7.76%
[19]
  cell viability: 5.7%
[20]
  cell viability: 4.81%
[21]
  cell viability: 3.3%
[22]
  cell viability: 2.05%
[23]
  cell viability: 83.2%
[24]
  cell viability: 68.2%
[25]
  cell viability: 90.6%
[26]
  cell viability: 16.8%
[27]
  cell viability: 107%
[28]
  cell viability: 17.6%
[29]
  cell viability: 7.97%
[30]
  cell viability: 6.58%
[31]
  cell viability: 5.53%
[32]
  cell viability: 4.01%
[33]
  cell viability: 2.9%

## Cc1csc(NC(=O)c2sc3nc4c(c(C(F)(F)F)c3c2N)CCC4)n1
[1]
  cell viability: 82%
[2]
  cell viability: 96.7%
[3]
  cell viability: 93.6%
[4]
  cell viability: 81.8%
[5]
  cell viability: 108%
[6]
  cell viability: 86.6%
[7]
  cell viability: 96%
[8]
  cell viability: 101%
[9]
  cell viability: 81.1%
[10]
  cell viability: 70.2%
[11]
  cell viability: 89.3%
[12]
  cell viability: 82.1%
[13]
  cell viability: 99.9%
[14]
  cell viability: 89.7%
[15]
  cell viability: 107%
[16]
  cell viability: 92.2%
[17]
  cell viability: 104%
[18]
  cell viability: 106%
[19]
  cell viability: 97.1%
[20]
  cell viability: 84%
[21]
  cell viability: 73.1%
[22]
  cell viability: 79%
[23]
  cell viability: 84.4%
[24]
  cell viability: 96.8%
[25]
  cell viability: 106%
[26]
  cell viability: 80.8%
[27]
  cell viability: 92.9%
[28]
  cell viability: 99.3%
[29]
  cell viability: 89.6%
[30]
  cell viability: 97%
[31]
  cell viability: 76.6%
[32]
  cell viability: 69.9%
[33]
  cell viability: 69.9%

## C[C@]12CC[C@H]3[C@@H](C\C=C/4C[C@@H](O)CC[C@]34C)[C@@H]1CCC2=O
[1]
  cell viability: 103%
[2]
  cell viability: 98.2%
[3]
  cell viability: 91.1%
[4]
  cell viability: 102%
[5]
  cell viability: 98.4%
[6]
  cell viability: 94.6%
[7]
  cell viability: 99.8%
[8]
  cell viability: 98.2%
[9]
  cell viability: 83.4%
[10]
  cell viability: 107%
[11]
  cell viability: 103%
[12]
  cell viability: 108%
[13]
  cell viability: 114%
[14]
  cell viability: 121%
[15]
  cell viability: 135%
[16]
  cell viability: 136%
[17]
  cell viability: 111%
[18]
  cell viability: 135%
[19]
  cell viability: 115%
[20]
  cell viability: 93.1%
[21]
  cell viability: 116%
[22]
  cell viability: 97.5%
[23]
  cell viability: 112%
[24]
  cell viability: 97.1%
[25]
  cell viability: 118%
[26]
  cell viability: 128%
[27]
  cell viability: 127%
[28]
  cell viability: 136%
[29]
  cell viability: 130%
[30]
  cell viability: 121%
[31]
  cell viability: 94.3%
[32]
  cell viability: 115%
[33]
  cell viability: 112%

## CN1CCCC(CC1)N2\N=C(CC3=CC=C(Cl)C=C3)/C4=C(C=CC=C4)C2=O (centres undefined)
[1]
  cell viability: 92.9%
[2]
  cell viability: 110%
[3]
  cell viability: 104%
[4]
  cell viability: 114%
[5]
  cell viability: 110%
[6]
  cell viability: 112%
[7]
  cell viability: 99.1%
[8]
  cell viability: 106%
[9]
  cell viability: 111%
[10]
  cell viability: 101%
[11]
  cell viability: 74.9%
[12]
  cell viability: 72.4%
[13]
  cell viability: 78.3%
[14]
  cell viability: 71.9%
[15]
  cell viability: 79.5%
[16]
  cell viability: 81.8%
[17]
  cell viability: 94.8%
[18]
  cell viability: 90.2%
[19]
  cell viability: 98.9%
[20]
  cell viability: 83.8%
[21]
  cell viability: 80.6%
[22]
  cell viability: 73.1%
[23]
  cell viability: 91.7%
[24]
  cell viability: 108%
[25]
  cell viability: 96.2%
[26]
  cell viability: 102%
[27]
  cell viability: 112%
[28]
  cell viability: 105%
[29]
  cell viability: 108%
[30]
  cell viability: 121%
[31]
  cell viability: 96.5%
[32]
  cell viability: 109%
[33]
  cell viability: 97.6%

## CN(C)CCOc1ccc(-c2nc(-c3ccncc3)c(-c3ccc4c(c3)CC/C4=N\O)[nH]2)cc1
[1]
  cell viability: 108%
[2]
  cell viability: 111%
[3]
  cell viability: 106%
[4]
  cell viability: 106%
[5]
  cell viability: 110%
[6]
  cell viability: 101%
[7]
  cell viability: 114%
[8]
  cell viability: 117%
[9]
  cell viability: 112%
[10]
  cell viability: 109%
[11]
  cell viability: 24.8%
[12]
  cell viability: 107%
[13]
  cell viability: 104%
[14]
  cell viability: 106%
[15]
  cell viability: 124%
[16]
  cell viability: 123%
[17]
  cell viability: 113%
[18]
  cell viability: 126%
[19]
  cell viability: 114%
[20]
  cell viability: 122%
[21]
  cell viability: 109%
[22]
  cell viability: 19.6%
[23]
  cell viability: 115%
[24]
  cell viability: 109%
[25]
  cell viability: 111%
[26]
  cell viability: 113%
[27]
  cell viability: 113%
[28]
  cell viability: 119%
[29]
  cell viability: 125%
[30]
  cell viability: 134%
[31]
  cell viability: 119%
[32]
  cell viability: 115%
[33]
  cell viability: 68.5%
